Measured values: patent publication US20150079000A1, “Labelled Quinoxaline Derivatives as Multimodal Radiopharmaceuticals and Their Precursors” (INSTITUT NATIONAL DE LA SANTET DE LA RECHERCHE MEDICALE, priority 2012, published 2015)

What was measured:
[1] = test system: melanin polymers; test: Biodistribution by secondary ion mass spectrometry (SIMS) analysis; type: in vivo, C57BL/6J mice; details: B16BL6 melanoma cells colony in lung, 1 h after i.v. 0.1 μmol/mice
Method: B16BL6 cells were injected intravenously into male C57BL/6J mice to obtain, within 12 days, tumour cell colonies in lungs mimicking pulmonary micrometastases. After i.v. administration of compound (1) (0.1 μmol/mice in 0.2 mL of a hydroalcoholic solution (5% v/v, 0.9% NaCl) per mouse), mice were killed 1 h post injection. Lungs were removed and small pieces of tissue including B16 melanoma colonies were isolated and fixed by slam freezing on an LN2-precooled metal mirror. Samples were dehydrated by freeze drying starting at −110 to −10° C. before embedding in Spurr resin. Serial sections of 0.4 μm thick were deposited on stainless steel holders for SIMS analysis or on glass slides for light microscopy observation.

[2] = test system: melanoma model B16BL6; test: Internal radiotherapy with [131I](1), B16BL6 model; type: in vivo, mice
[3] = Calculation of absorbed dose to the tumour and organs (MIRD); type: in vivo, C57BL/6J mice; details: iodine 131
[4] = test system: SKMEL-3 human melanoma model; test: Internal radiotherapy with [131I](1), SKMEL-3 model; type: in vivo, mice
Method: Compound (1) was labelled with iodine-131, at high specific activity, from the corresponding stannane precursor, as described in detail in example 8. The labeling was performed with a radiochemical yield of 80% and a radiochemical purity>99%. […] The antitumour activity of the compound [^131I](1) was also evaluated in SKMEL-3 human melanoma model after injections of 25 MBq of [^131I](1): Two groups of mice were used receiving two injections at day-33 and day-40 or three injections of at day-33, day-40 and day-47 post inoculation. Results were compared to control group injected with saline.

[5] = octanol/water (PBS buffer) partition coefficient (log D); type: physicochemical

SMILES: CCN(CCNC(=O)c1cnc2cc(I)ccc2n1)CCOCCOCCOCCF [Compound 1, N-(12-ethyl-1-fluoro-3,6,9-trioxa-12-azatetradecan-14-yl)-6-iodoquinoxaline-2-carboxamide]
- colocalisation with melanin polymers (SIMS, CN− and iodine-127 signals) [1]: perfect colocalisation

SMILES: CCN(CCNC(=O)c1cnc2cc([131I])ccc2n1)CCOCCOCCOCCF [[^131I](1)]
- metastasis dissemination ([2]; B16BL6 melanoma model): inhibition of metastasis dissemination
- tumour doubling time ([2]; B16BL6 tumours, two i.v. injections of 20 MBq at day-7 and day-11): 2.9 ± 0.5 days
- median survival time ([2]; treated B16BL6 bearing-mice): 27 days
- Biological half life (h) ([3]; Adipose): 38.28 h
- Effective half life ([3]; Adipose): 47.78 h
- Biological half life (h) ([3]; Bladder (empty)): 27.57 h
- Effective half life ([3]; Bladder (empty)): 32.17 h
- Biological half life (h) ([3]; Blood): 27.45 h
- Effective half life ([3]; Blood): 32.02 h
- Biological half life (h) ([3]; Brain): 27.55 h
- Effective half life ([3]; Brain): 41.63 h
- Biological half life (h) ([3]; Colon with Faeces): 28.48 h
- Effective half life ([3]; Colon with Faeces): 26.92 h
- Biological half life (h) ([3]; Eyes): 125.03 h
- Effective half life ([3]; Eyes): 356.77 h
- Biological half life (h) ([3]; Heart): 68.51 h
- Effective half life ([3]; Heart): 46.93 h
- Biological half life (h) ([3]; Kidney): 27.60 h
- Effective half life ([3]; Kidney): 32.22 h
- Biological half life (h) ([3]; Liver): 25.87 h
- Effective half life ([3]; Liver): 29.89 h
- Biological half life (h) ([3]; Lung): 37.73 h
- Effective half life ([3]; Lung): 34.21 h
- Biological half life (h) ([3]; Muscle): 37.36 h
- Effective half life ([3]; Muscle): 46.36 h
- Biological half life (h) ([3]; Pancreas): 29.04 h
- Effective half life ([3]; Pancreas): 40.79 h
- Biological half life (h) ([3]; Skin): 46.20 h
- Effective half life ([3]; Skin): 60.79 h
- Biological half life (h) ([3]; Small Bowels): 23.67 h
- Effective half life ([3]; Small Bowels): 26.99 h
- Biological half life (h) ([3]; Spleen): 33.66 h
- Effective half life ([3]; Spleen): 33.43 h
- Biological half life (h) ([3]; Stomach): 27.36 h
- Effective half life ([3]; Stomach): 31.89 h
- Biological half life (h) ([3]; Testes): 27.57 h
- Effective half life ([3]; Testes): 32.16 h
- Biological half life (h) ([3]; Tumour): 71.67 h
- Effective half life ([3]; Tumour): 114.18 h
- Biological half life (h) ([3]; bones): 12.92 h
- Effective half life ([3]; bones): 13.85 h
- tumour doubling time ([4]; SKMEL-3 tumours, injections of 25 MBq once weekly for 2 or 3 weeks): 26.5 ± 7.8 days
- median survival time ([4]; treated SKMEL-3 bearing-mice): 111 days
- octanol/water (PBS buffer) partition coefficient (log D) [5]: 0.95±0.04
